According to patent US20220370566A1, “METHOD AND COMPOSITIONS FOR TREATING DECREASED COGNITIVE ABILITY” (Saint Louis University, priority 2018, published 2022):
Several values for one entry are separate records, joined by “and”; a condition that tells them apart may be missing. Equal values may be shown once.

Assays:
[1] = test system: male C57BL/6J (B6) mice, aged 18 months; assay: Novel Object Recognition test, aged mice treated with adropin^34-76; type: in vivo, mouse
Protocol: For the novel object recognition task, mice are habituated to an empty apparatus, a 58×66×11-cm white plastic box, for 5 min a day for 3 consecutive days prior to entry of objects. On the first day of training, mice are placed in the testing apparatus with two identical objects (A and B). 24h later the animal is reintroduced to the arena but this time one of the original objects is removed and a new object (C). Total time spent exploring each of the two objects is recorded. Anxiety will be assessed using open field and elevated plus maze tests. The experimental apparatus consists of a central platform, two open arms and two equal-sized closed arms opposite to each other. The test consisted of placing a mouse in the central platform facing an enclosed arm and allowing it to freely explore the maze for 5 min. The number of entries into the open and closed arms and the time spent in open arms was measure by an observer blind to treatment
(§1) To examine the effects of endogenous adropin on a subject's cognitive ability, 34 male C57BL/6J (B6) mice, aged 18 months, were treated with exogenous adropin^34-76. Mice were purchased from The Jackson Laboratory (Bar Harbor, Me.). After acclimation for 1 month, mice were separated into two weight matched groups of 15 mice: Group 1 adropin^34-76 treatment group and Group 2 saline vehicle control.
(§2) The mice were administered a single intraperitoneal injection (volume 100 μl) each morning (0900h) for 4 weeks. Group 1 was administered adropin^34-76 at a dose of 90 nmol/kg/day. Group 2 was administered saline. The peptide was purchased from Neoscientific Inc. Behavioral testing began after 2 weeks of injections. Injections continued though testing until 4 weeks.
A non-amnesic subject will spend more time exploring the novel object than the familiar one. When adropin treated and vehicle treated mice were subjected to the Novel Object Recognition test, adropin treated mice spent more time exploring the novel object (FIG. 11, Table 1)

[2] = test system: male C57BL/6J (B6) mice, aged 18 months; assay: Aversive T-maze acquisition, aged mice treated with adropin^34-76; type: in vivo, mouse; conditions: 90 nmol/kg/day ip
Protocol: (§3) Memory retention and acquisition were assessed using an aversive T-maze and novel objective recognition, as previously described (Farr et al., (2016) J Alzheimers Dis.; 54(4):1339-1348). Briefly, the T-maze consists of a black plastic alley with a start box at one end and two goal boxes at the other. An electrifiable floor of stainless steel rods run throughout the maze to deliver a foot-shock using a scrambled grid floor shocker (Model E13-08, Coulbourn Instruments, Whitehall, Pa.). Mice are not permitted to explore the maze prior to training. A block of training trials begins when mice are placed in the start box. The guillotine door is raised and a cue buzzer sounded simultaneously (doorbell type, at 55 dB); 5s later a mild aversive foot-shock is applied with an intensity of 0.35 mA. The arm of the maze entered on the first trial is designated “incorrect” and the mild foot-shock continued until the mouse enters the other goal box, which in all subsequent trials is designated “correct” for each mouse. Mice are trained until they made one active avoidance, with an inter-trial interval of 30-35s. The number of trials to make one active avoidance is the measure of acquisition. Retention is tested 7d later, with training continued until the criterion of making five active avoidances in six consecutive trials is achieved. The number of trials needed to reach this criterion is the measure of retention (Butler et al., (2012) The Journal of clinical endocrinology and metabolism; 97(10):3783-3791; Wong et al., (2014) The Journal of biological chemistry; 289(37):25976-25986).
as §1, §2
Mice prepared with adropin or placebo in Example 3 were subjected to the Acquisition T-maze test.

[3] = test system: male C57BL/6J (B6) mice, aged 18 months; assay: Aversive T-maze retention (retest after 7 days), aged mice treated with adropin^34-76; type: in vivo, mouse; conditions: 90 nmol/kg/day ip
Protocol: as §3, §1, §2
(FIG. 12, Table 3) Mice were retested in the maze after 7 days and Adropin treated mice retained learned memories and complete the maze in lets time.

[4] = Body weight and survival during 4 weeks of adropin^34-76 injections; type: in vivo; conditions: group 1 (adropin^34-76, 90 nmol/kg/day ip), 15 mice
Protocol: as §1, §2

[5] = test system: Male C57BL/6J B6 mice subjected to TBI; assay: T-maze retention after mild closed-head traumatic brain injury (TBI); type: in vivo, mouse
Protocol: FIG. 16 illustrates the results of T-maze data from adropin treated and adropin transgenic mice after traumatic brain injury. SHAM are mice handled but not subject to injury. Veh are mice treated with 0.9% saline. […] (A) Mice used were males, aged 10-14 weeks, purchased from the Jackson laboratory. (B) “TG” are adropin transgenic mice. “WT” are wild-type littermates. All mice were males aged 9-12 months.
Memory retention and acquisition were assessed using an aversive T-maze and novel objective recognition, as previously described (Farr et al., (2016) J Alzheimers Dis.; 54(4):1339-1348). Briefly, the T-maze consists of a black plastic alley with a start box at one end and two goal boxes at the other. An electrifiable floor of stainless steel rods run throughout the maze to deliver a foot-shock using a scrambled grid floor shocker (Model E13-08, Coulbourn Instruments, Whitehall, Pa.). Mice are not permitted to explore the maze prior to training. A block of training trials begins when mice are placed in the start box. The guillotine door is raised and a cue buzzer sounded simultaneously (doorbell type, at 55 dB); 5s later a mild aversive foot-shock is applied with an intensity of 0.35 mA. The arm of the maze entered on the first trial is designated “incorrect” and the mild foot-shock continued until the mouse enters the other goal box, which in all subsequent trials is designated “correct” for each mouse. Mice are trained until they made one active avoidance, with an inter-trial interval of 30-35s. The number of trials to make one active avoidance is the measure of acquisition. […]
(§4) TBI PROCEDURE: Mice were exposed to mild closed-head concussive TBI. […] Adequate anesthesia was determined by the lack of both the corneal reflex and toe pinch reflex. […] Following Isoflurane anesthesia and the weight drop procedure, mouse respiration, heart rate and righting reflex was monitored to ensure recovery. The righting reflex time was recorded for each mouse. […] When the mouse moves from a supine to a prone position, i.e., rights itself, the time will be recorded. […]

plasma cytokine levels = assay: Plasma cytokine levels after TBI; type: in vivo, mouse; conditions: TBI followed by adropin vs TBI followed by saline
Protocol: FIG. 17 illustrates plasma cytokine levels of mice that were: uninjured, subjected to TBI, and subjected to TBI followed by adropin injections.
TBI PROCEDURE: Mice were exposed to mild closed-head concussive TBI. Mice were anesthetized with isoflurane 2-4% and placed under a device consisting of a Plexiglas tube (inner diameter 13 mm) placed vertically over the animal's head. Adequate anesthesia was determined by the lack of both the corneal reflex and toe pinch reflex. Each mouse received 90 sec Isoflurane anesthesia in the induction chamber. The injury was induced by dropping a 25-gm acrylic weight from 80 cm height down the Plexiglas tube, striking the skull. This weight was chosen based upon literature using this type of device (Tweedie et al. (2016) PLoS One. 11(6):e0156493; Zohar et al. (2011) Acta Neurobiol Exp. 71:36-45). […] Following Isoflurane anesthesia and the weight drop procedure, mouse respiration, heart rate and righting reflex was monitored to ensure recovery. The righting reflex time was recorded for each mouse. […] When the mouse moves from a supine to a prone position, i.e., rights itself, the time will be recorded. […] One hour following the weight drop injury four reflexes were checked and recorded: the corneal reflex in both eyes, hindleg extension when held by the tail, startle response from a puff of air, and the ability to walk with a normal gate. […]

[6] = test system: Hippocampal gene expression; assay: Hippocampal gene expression (cytokines, growth factors) after TBI; type: in vivo, mouse; conditions: TBI+Adr vs TBI+veh and Sham
Protocol: FIG. 18 illustrates Hippocampal gene expression. There are increases in the expression of cytokines (significant for IL16, CCI2, IL17) in the hippocampus of TBI-veh mice versus uninjured (sham) controls TBI also appears to result in changes in expression of growth factors (BDNF, VEGF). In most cases, these changes were attenuated by adropin treatment.
Gene expression was assessed using qRT-PCR as previously described. Hippocampal and cortical tissue samples were dissected from fresh brains and snap frozen brains on dry-ice cold isopentane. Total RNA was extracted using Trizol (Invitrogen, Life Technologies) and treated with a DNAfree kit (Ambion, Life Technologies). […] Quantitative PCR was performed in 96-well plates using Taqman gene expression and QuantStudio 7 Detection Systems (Applied Biosystems, Life Technologies); 36B4 was used as the reference gene.
as §4

[7] = Metabolic effect of adropin^34-76 administration in mice; type: in vivo, mouse; conditions: delivered as two 45 nmol/kg injections
Source text: (§5) Using mice, the Inventors have shown that administration of adropin^34-76, in doses as low as 90 nmol/kg/day, delivered as two 45 nmol/kg injections, can be effective in producing changes in metabolism. Dose as high as 900 nmol/kg/d are well tolerated in mice. While the doses required for a desired clinical effect in humans is expected to vary between patients, the 90 nmol/kg dose administered by subcutaneous, intramuscular, or intravenous injection, either once or twice a day, may represent a preferred treatment protocol. It is anticipated that the treatments would be administered daily, although long-acting formulations involving weekly injections are envisaged. The optimum dose and frequency for a particular subject may be determined by the patient's treating physician, based on the patient's cognitive response. It is anticipated that adropin therapy may or may not improve a subject's cognitive function relative to current baseline, however adropin therapy may result in significant delays in the advancement of the disease. Improvement may manifest as a significant delay or a reduced rate of subsequent cognitive decline.

[8] = Tolerability of adropin^34-76 in mice; type: in vivo, mouse
Source text: as §5

[9] = test system: subjects with diet-induced obesity; conditions: Kumar et al. 2008, Gao et al. 2014, 2015; cited from earlier work
[10] = n = 14, SEM in next cell, P <0.0001 vs vehicle

With “adropin^34-76 (CHSRSADVDSLSESSPNSSPGPCPEKAPPPQKPSHEGSYLLQP; Adropin; UniProt Q6UWT2 34-76, looked up, fragment)” the “Novel Object Recognition, result in words vs vehicle treated mice” value ([1]; 90 nmol/kg/day ip) was “improved cognitive performance”, the “Novel Object Recognition, difference between means (Adropin vs. Vehicle)” value ([1]; 90 nmol/kg/day ip, vehicle mean 43.90) was 14.99 and the “Novel Object Recognition, mean (Adropin)” value ([1]; n = 15, SEM in next cell, P 0.0183 vs vehicle, unpaired t test, 90 nmol/kg/day ip) was 58.88. For the same substance, the “Novel Object Recognition test, 24 Hour delay % Novel Object (individual mice)” value ([1]; one value per mouse, 90 nmol/kg/day ip for 4 weeks, testing after 2 weeks) was 55.56% and 77.50% and 66.67% and 79.10% and 51.06% and 100.00% and 51.61% and 46.43% and 42.86% and 53.06% and 37.50% and 40.74% and 64.58% and 62.50% and 58.82%, the “T-maze acquisition, result in words vs placebo treated mice” value [2] was “performed better” and the “T-maze acquisition, difference between means (Adropin vs. Vehicle)” value ([2]; vehicle mean 10.80) was −3.443. The “T-maze acquisition, mean (Adropin)” value [2, 10] was 7.357, the “T-maze acquisition (individual mice)” value ([2]; one value per mouse, number of trials to make one active avoidance) was 7. (5×) and 8. (4×) and 9. (2×) and 6. (3×) and the “T-maze Retention, difference between means (Adropin vs. Vehicle)” value ([3]; vehicle mean 9.200) was −2.343. For the same substance, the “T-maze Retention, mean (Adropin)” value [3, 10] was 6.857, the “T-maze Retention (individual mice)” value ([3]; one value per mouse, trials to five active avoidances in six consecutive trials, 7 d later) was 7. (7×) and 8. and 6. (5×) and 9 and the “T-maze retention, result in words vs vehicle” value ([3]; retested after 7 days) was “superior performance”. For the same substance, the deaths during treatment [4] was “One mouse in group 1 died”, the “deficits in spatial learning and memory after TBI” value ([5]; 450 nmol/kg iv at 1 h and 450 nmol/kg ip at 24 h post-injury, male B6 mice) was “exhibited protection from deficits in spatial learning and memory” and the “T-maze retention after TBI, compared with uninjured vehicle treated controls” value ([5]; TBI+Adro vs SHAM+Veh) was “not significantly different”. For the same substance, the “T-maze retention after TBI, compared with TBI followed by saline” value ([5]; TBI+Adro vs TBI+Veh, injections 1 h and 24 h post-injury, ** 99% confidence) was “significantly improved”, the “plasma cytokine levels after TBI, in words” value (plasma cytokine levels) was “possible reduction in inflammatory responses to TBI” and the “TBI-induced changes in hippocampal cytokine and growth factor expression, in words” value [6] was “these changes are attenuated in most cases”. For the same substance, the “dose effective in producing changes in metabolism” value [7] was no less than 90 nmol/kg/day, the dose well tolerated [8] was no more than 900 nmol/kg/day and the “metabolic changes after intraperitoneal injection, in words” value [9] was “metabolic changes suggesting improvements in glucose control and reduced risk for type 2 diabetes”.
